# Reference: the NIST ThermoML archive (doi:10.1021/je900599q)
# Numbers after ± are expanded uncertainties.
# Details: 298.2 K; 101.33 kPa; Liquid; Pycnometric method
compound,measurement,value
CO [methanol],mass density,796 ± 1 kg/m3
